The values below come from patent US5288716A, “Use of pyridoxine derivatives in the prevention and treatment of hyperlipidaemia and atherosclerosis” (priority 1987, dated 1994).

Molecules are shown by their SMILES. Structures can show the parent of a compound that is named as a salt.

The nature of series [1]: Tolerance of vitamin B6 and two derivatives in mice after a single oral dose of 5 g. The following applies: mouse, in vivo, 5000 mg, single oral dose of 5 g, read-out: % death. The text has this:
3. Tolerance of vitamin B6 and two derivatives in mice after a single oral dose of 5 g

In series [2] the test system is serum lipids. The experiment in a line: Effect of vitamin B6 and a derivative thereof on serum lipids in rats after 12 weeks of treatment. In kind it is in vivo. The following applies: diet 2.5% cholesterol plus 0.25% cholic acid, 79 mg pyridoxine/kg or equimolar dose. The procedure: 1. Effect of vitamin B6 and a derivative thereof on serum lipids in rats after 12 weeks of treatment
Group A=rats fed with normal diet without cholesterol
Group B=rats fed with a diet containing 2.5% cholesterol plus 0.25% cholic acid
Group C=as group (B) plus 79 mg pyridoxine/kg bodyweight
Group D=as group (B) plus an equimolar (to pyridoxine) dose of a pyridoxamine derivative
20 animals per group; means ±SD; difference to group B in %

In series [3] the test system is lipid metabolism. The experiment in a line: Pyridoxine in rats (own experiments, with a positive control). In kind it is in vivo. The following applies: 79 mg/kg body weight. From the text: This was explicitly queried in DE 24 61 742 C2 (column 3, lines 35 ff). […] Pyridoxine was used separately in earlier experiments on animals in conjunction with lipid metabolism (see Frolova, J. A.: Vitamin B6 and lipid metabolism; Vopr. med. Khim. 89, 18. 339-346 (1972)). Its effect, however, is weak.

The test system of series [4] is lipid metabolism. To be noted: earlier experiments on animals; cited from earlier work.
Series [5] has as its system aortae of the rabbits from the heart to the bifurcation. In words: Aorta changes in hyperlipaemic rabbits after 10 weeks of treatment (120 mg/kg), relative to non-treated rabbits. It is filed as in vivo. The procedure:
The values are mean values of 18 rabbits and measured relative to a basis of non-treated rabbits.
The control group received a diet comprising 2% of cholesterol. In the group under treatment each rabbit received additionally 120 mg pyridoxamine.2 HCl/kg body weight. At the end of the test the aortae of the rabbits from the heart to the bifurcation were prepared and examined: […]

Series [6] concerns aorta of rabbits. The experiment in a line: Effect of vitamin B6 and the equimolar dose of a derivative thereof on the calcium and lipid content of the aorta of rabbits after 10 weeks. It is filed as in vivo. The following applies: control diet 2% cholesterol, pyridoxamine 2HCl 78 mg/kg, pyridoxine HCl 62 mg/kg. From the text:
2. Effect of vitamin B6 and the equimolar dose of a derivative thereof on the calcium and lipid content of the aorta of rabbits after 10 weeks of treatment as compared to a control group fed with a diet containing 2% cholesterol

Where [7] appears, read: 2% cholesterol diet, 120 mg/kg body weight, 10 weeks, mean of 18, relative to non-treated.

Regarding `Cc1ncc(CO)c(C=O)c1O` [Pyridoxal], the mortality in series [1] turned out to be 100%.
For the molecule `Cc1ncc(CO)c(CN)c1O` [Pyridoxamine], the mortality in series [1] turned out to be 0%.
`Cc1ncc(CO)c(CO)c1O` [Pyridoxine]: in series [2], the “LDL + VLDL-Cholesterol, difference to group B” value was -10% and the “Total serum cholesterol, difference to group B” value is listed as -4%. Besides, in series [2] (mean (SD in next line)), the “LDL + VLDL-Cholesterol” value worked out at 150 and the Total serum cholesterol is 204. In addition, in series [1], the mortality was determined as 30%. In addition, the effect in rats result in series [3] was “ineffective”. Also, the “effect on lipid metabolism” value in series [4] was “weak”.
For `Cc1ncc(CO)c(CN)c1O` [pyridoxamine.2 HCl], in series [5] (setting [7]), the “decrease of calcium in aorta” value is given as 31%, the “decrease of cholesterol in aorta” value is 27%, the “decrease of lipids (total) in aorta” value turned out to be 18% and the “decrease of triglycerides in aorta” value came out at 17%. Besides, the “decrease of changes characteristic for atherosclerosis (thickening of the walls, lipid- and calcium uptake)” value in series [5] (after 10 weeks) was “substantial decrease”. Also, in series [6], the “calcium in aorta, % difference to control” value is -24%; the “cholesterol in aorta, % difference to control” value is recorded as -21%; the “dry weight of aorta, % difference to control” value is -7%; the “total lipids in aorta, % difference to control” value is recorded as -15%. The “triglycerides in aorta, % difference to control” value in series [6] is recorded as -15%.
On to `Cc1ncc(CO)c(CO)c1O` [pyridoxine · HCl], for which, in series [6], the “calcium in aorta, % difference to control” value is “+21%”; the “cholesterol in aorta, % difference to control” value is recorded as -2%; the “dry weight of aorta, % difference to control” value is recorded as -1%; the “total lipids in aorta, % difference to control” value is reported as -3%. In addition, in series [6], the “triglycerides in aorta, % difference to control” value is reported as “+6%”.
